Measurements published in patent US7157092B1, “Acyl pseudodipeptides, preparation method and pharmaceutical compositions containing same” (Om Pharma, priority 1998, dated 2007).
Several values for one entry are separate records, joined by “and”; a condition that tells them apart may be missing. Equal values may be shown once.

Tested on: TT antigen
Test: Subcutaneous immunization with TT antigen (tetanos toxoid): specific serum immunoglobulins (ELISA)
Type: in vivo, BALB/c mice
Settings: for Titer of immunoglobulins specifically directed against TT of IgM subclass (number of animals and dilution): dilution giving signal at 490 nm greater than mean ± 3 SD of group A; for Immunoglobulins specifically raised against TT of IgG1 subclass / Immunoglobulins specifically raised against TT of IgG2a subclass: s.c. injections days 0 and 14, adjuvant 50 μg per injection, ± SD; for adjuvant effect on titer of IgG1 and IgG2a antibodies specifically raised against TT: after one or two injections, FIGS. 28, 29
Procedure: To this end, 40 BALB/c mice (females, 8 weeks-old at the beginning of treatment) are divided into 4 groups as follows:
Antigen: A TT stock solution is prepared at a concentration of 0.2 mg/ml in 0.9% NaCl.
The negative control consists of a 0.9% NaCl solution without antigen.
Antigen-Adjuvant mixture: Adjuvants are allowed to stand for 20 minutes at 37° C. before vortex treatment for 3 minutes. Then the antigen and (0.9%) NaCl are added as specified in the above Table, and the antigen/adjuvant mixture is vortexed briefly before placing it on a rotary stirrer for 15 minutes at room temperature, then the whole mixture is vortexed for 3 minutes.
Immunization regimen: Injections are scheduelled on days 0 and 14. The mixtures stated in the preceeding table are administered by subcutaeous route (75 μl on the side, 150 μl in total per animal). Blood sampling is scheduelled on days 14 and 28 (orbital puncture).
Assay for anti-TT immunoglobulins: The following serum Immunolglobulins which are specifically directed against TT are assayed in duplicate by ELISA: IgG1, IgG2a, and IgM. Microtiter plates (NUNC Immunoplate, Roskilde, DK) are incubated (overnight coating) at 4° C. together with 100 μl TT (0.5 μg) in bicarbonate buffer (pH 9.6). After washing with 0.5% Tween-20 (Merck Hohenbrunn, D), sera are diluted 50-, 200- and 800-fold (diluting solution: phosphate buffered saline (PBS)+1% bovine serum albumin (BSA, Sigma, St. Louis, Mo., USA)+0.02% Tween-20)). 100 μl of each dilute serum sample are added to the wells. Incubation lasts 45 minutes at 37° C.
After a second washing step, IgG1, IgG2a and IgM specifically directed to ovalbumin are incubated for 30 minutes at 37° C. together with 100 μl of anti-IgG1 antibodies-peroxydase conjugate (Serotec, Oxford, UK), IgG2a-peroxydase conjugate (Pharmingen, San Diego, Calif., USA) and IgM-biotin conjugate (Pharmingen, San Diego, Calif., USA), diluted beforehand in PBS/BSA/Tween buffer (250-, 1000-, 500-fold dilutions, respectively). For IgM, after an extra washing step, a 3rd incubation step is required (30 min. at 37° C.) with a 1:100 dilute solution of streptavidin-peroxydase conjugate (Dako, Glostrup, DK).
After the washing step, 100 μl of a phenylene 1,2-diamine solution (OPD, Merck, Darmstadt, GFR) are added to detect peroxydase-coupled anti-IgG1 and anti-IgG2 secondary antibodies (whereas for IgM, the reagent being used is 3′, 3′, 5′,5′-tetramethylbenzidine (TMB, Sigma, St. Louis, Mo., USA). After a 20 minute incubation period at room temperature (40 min. for TMB), the reaction is stopped by adding 100 μl of 2N H2SO4. Absorbance values are read at 490 nm with a Bio-Rad 3550 model plate reader
Results of each reading at 490 nm when measuring IgG1 and IgG2a are given in arbitrary units (A.U.) per ml. This is achieved by comparing each sample with a standard prepared from different dilutions of a sample pool collected from the group B at day 28 (animals injected with TT alone). As this term implies, the sample pool diluted 50-fold is at a concentration of 1000 A.U./ml. Individual results are then corrected for the corresponding dilution factor (50, 200, or 800 fold). Only the mean values of each group and the standard deviation (SD) are herein reported.
Regarding the assay of IgM specific for TT, since the “background noise” of the assay was too high, no clear cut difference could be found between group B (TT alone) and groups C and D (TT with adjuvant) by measuring specific IgM as previously done for IgG1 and IgG2a. Instead, specific IgM titer could be determined, using successive dilutions of each sample (rather than A.U. described before) and the result was reported, for each sample, as the highest dilution which gives an absorbance reading greater than mean absorbance±3 SD for group A (NaCl).

Compound	Titer of immunoglobulins specifically directed against TT of IgM subclass (number of animals and dilution) (Day 14)	Immunoglobulins specifically raised against TT of IgG1 subclass (Day 14)	Immunoglobulins specifically raised against TT of IgG2a subclass (Day 14)	Titer of immunoglobulins specifically directed against TT of IgM subclass (number of animals and dilution) (Day 28)	Immunoglobulins specifically raised against TT of IgG1 subclass (Day 28)	Immunoglobulins specifically raised against TT of IgG2a subclass (Day 28)	adjuvant effect on titer of IgG1 and IgG2a antibodies specifically raised against TT
TT: TT antigen (tetanos toxoid, Massachussetts Biologic Laboratoires), injected alone	9 animals < 25 and 1 animal < 50	2871 ± 1633 Arbitrary units/ml	2547 ± 2539 Arbitrary units/ml	10 animals < 25	34367 ± 15018 Arbitrary units/ml	61387 ± 82269 Arbitrary units/ml	–
CCCCCCCCCCCC(=O)O[C@H](CCCCCCCCCCC)CC(=O)NC(CCOP(=O)(O)O)C(=O)NCCCC(COP(=O)(O)O)NC(=O)C[C@H](O)CCCCCCCCCCC (stereo partly drawn) [OM-294-DP, 3-[(R)-3-dodecanoyloxytetradecanoylamino]-4-oxo-5-aza-9-[(R)-3-hydroxytetradecanoylamino]decan-1,10-diol 1, 10-bis(dihydrogenphosphate)]	–	–	–	–	–	–	often significantly increase the titer of IgG1 and IgG2a antibodies
CCCCCCCCCCCC(=O)O[C@H](CCCCCCCCCCC)CC(=O)NC(CCOP(=O)(O)O)C(=O)NCCCC(CO)NC(=O)C[C@H](O)CCCCCCCCCCC (stereo partly drawn) [OM-294-MP, 3-[(R)-3-dodecanoyloxytetradecanoylamino]-4-oxo-5-aza-9-[(R)-3-hydroxytetradecanoylamino]-decane-1,10-diol 1-dihydrogenphosphate]	–	–	–	–	–	–	often significantly increase the titer of IgG1 and IgG2a antibodies
